# Experimental data published in US9045563B2, “CXC chemokine receptor 4 (CXCR4) antagonistic polypeptide” (priority 2007, dated 2015).
# Read-outs that look alike come from different tables or passages of the source. Ends that are not written are not given here.
# Assays:
# [1] = biological target: CXCR4 (Homo sapiens, UniProt P61073); assay: Ca2+ mobilization in CXCR4 expressing HEK293 cells (indo-1); format: cell-based; design: expressed in transfected cells
# Experimental: Ca^2+ responses were recorded.
# FIG. 17. CXCR4 antagonistic activities of ALB derivatives. […] CXCR4 or CCR5 expressing HEK293 cells were treated with CXCR4 agonist CXCL12 (10 nM) or CCR5 agonist CCL5 (20 nM), respectively, in the absence (no ALB) or presence of indicated ALB derivatives (50 μM). Calcium responses were recorded as described. Data shown are mean values±standard deviation derived from duplicates relative to peak calcium responses after treatment with agonists only (100%). […] CXCR4 expressing HEK293 cells were treated with Texas Red labeled CXCL12 (CXCL12-Tr) in the presence or absence of ALB peptides. Real-time fluorescence monitoring of ligand-receptor interactions was carried out as described. Shown are bound CXCL12-Tr levels in the presence of ALB peptides relative to CXCL12-Tr only treated cells (100% bound). Values were derived from a duplicate experiment.
# [2] = system: X4 tropic HIV-1 variants NL4-3, P51-Sc, P59-S/27 and P34-S; details: TZM-bl cells
# Experimental: (§1) 5000 TZM-bl cells were seeded in 100 μl of DMEM (10% FCS, 100 U/ml of penicillin G and 100 μg/ml of streptomycin sulfate). ALB408-423 was dissolved in PBS (10 mg/ml). One day later, 20 μl serial dilutions of ALB408-423 in PBS were added to cells and cells were subsequently infected with 0.5 ng of p24 antigen HIV-1 in a total volume of 200 μl. HIV-1 molecular clones differing in coreceptor tropism were used and generated as described (Papkalla et al., J. Virol. 76: 8455-9, 2002).
# FIG. 3: Chemically synthesized ALB408-423 specifically blocks X4 tropic HIV-1 infection. TZM-bl cells containing indicated dilutions of peptide were infected with HIV-1 variants differing in their coreceptor tropism. 3 days later Gal Screen assay was used to measure infection rates. […] B) Infection rates in the presence of 500 μg/ml ALB408-423 showing that the peptide specifically blocks X4 but not R5 tropic HIV-1 infection. Data shown are mean values±standard deviation derived from triplicate infections relative to PBS containing cells (100% infection).
# After 3 days, infection was detected using GalScreen assay (TROPIX) (example 1). […] In contrast, CCR5 tropic HIV-1 variants were not inhibited even in the presence of very high doses of ALB408-423 (500 μg/ml) (FIG. 3B). Due to the specific inhibition of the infection caused by X4-tropic HIV-1 variants, it is to be assumed that ALB408-423 interacts with the chemokine receptor CXCR4.
# Virus stocks were first titrated on TZM-bl cells. Then TZM-bl cells containing 100 μM of peptides were infected with infectivity normalized amounts of X4, dualtropic (X4/R5) or R5 tropic HIV-1.
# FIG. 10. ALB408-423 and truncated ALB derivatives specifically block X4 tropic HIV-1 infection. TZM-bl cells either containing PBS or 100 μM of indicated peptides were infected with normalized infectivities of X4, dualtropic or R5 tropic HIV-1 clones. Infection rates were measured 2 days post infection using the GalScreen assay. Shown are mean values (% of PBS treated control)±standard deviations derived from triplicate measurements.
# [3] = system: X4 tropic HIV-1 NL4-3; details: TZM-bl cells
# Experimental: HIV inhibition test were performed by seeding 4000 P4-R5 MAGI cells (P. Charneau et al., J. Mol. Biol. 241: 651, 1994) in 100 μl of DMEM (10% FCS, 100 U/ml penicillin G, and 100 μg/ml streptomycin sulfate). P4-R5 cells are stably transfected with an LTR-lacZ cassette and upon successful infection by HIV-1 will express—galactosidase in a Tat-dependent manner, which can be detected in a chemiluminescence test. On the following day, aliquots of the fractions were added. Therefor the lyophilized fractions were resuspended in 80 μl of DMEM, and 25 μl each thereof was pipetted to P4-R5 cells, incubated at 37° C. for 1 hour and subsequently infected with HIV-1 NL4—3 (1 ng of p24 antigen). Virus stocks were obtained by transient infection of 293T cells with proviral DNA by the calcium phosphate method (CalPhos™ Mammalian Transfection Kit, Clontech). Virus stocks were harvested 48 hours post transfection, filtrated and used for infection. Three days post infection, β-galactosidase activity in infected P4-R5 cells was detected using GalScreen assay (TROPIX) as recommended by the manufacturer. Briefly, supernatant was removed, 40 μl of a 1:1 dilution of PBS/GalScreen+substrate was added, followed by incubation at room temperature for 30 min. Then 30 μl of the lysates were transferred into 96 well lumiplates. Subsequently, the lumines-cence was detected as relative light units per second in a luminometer (Berthold, ORION). From all measurements, the mean β-galactosidase background activity of non-infected control cells was subtracted. % infection values for each infection were calculated relative to no peptide containing controls (100%). The enzyme activities in measurements without ALB408-423 were set at 100%, and all other values were based thereon. The final purification (7th step) was examined under exactly the same conditions in TZM-bl cells (X. Wei et al., Antimicrob. Agents Chemother. 46: 1896, 2002).
# 1.6 mg of fraction 31 from the 7th step in Example 1 was dissolved in 160 μl of DMEM. Subsequently, 10 μl of serial dilutions of fraction 31 containing ALB408-423 were added to 60 μl of TZM-bl cells (60 μl) and infected with 1 ng of p24 antigen HIV-1 NL4—3 in a total volume of 100 μl. Three days later, infection rates were determined in a GalScreen assay (see Example 1).
# as §1
# Table 1. Antiviral activity of various ALB fragments against X4 tropic HIV-1 NL4-3 infection. TZM-bl cells containing serial dilutions of synthetic peptides were infected with HIV-1 NL4-3 and infection rates were determined and calculated as described in example 1 and 2 at two days post infection. IC50 values were determined using the GraphPad Prism software package.
# Various ALB408-423 derivatives containing N or C terminal deletions or amino acid substitutions (Table 1) were chemically synthesized and lyophilized peptides were dissolved in PBS. The antiviral activity was analyzed in TZM-bl cells using X4 tropic HIV-1 NL4-3 as described (example 4).
# [4] = system: X4 tropic HIV-2ROD10; details: read-out: IC50, X4 tropic HIV-2 infection (Example 5), TZM-bl cells
# Experimental: Two days later infection rates were determined and calculated as described.
# After three days infection rates were determined using the Gal Screen assay. Shown are mean values±standard deviation derived from triplicate measurements.
# Chain of CXCR4 (P61073 whole entry): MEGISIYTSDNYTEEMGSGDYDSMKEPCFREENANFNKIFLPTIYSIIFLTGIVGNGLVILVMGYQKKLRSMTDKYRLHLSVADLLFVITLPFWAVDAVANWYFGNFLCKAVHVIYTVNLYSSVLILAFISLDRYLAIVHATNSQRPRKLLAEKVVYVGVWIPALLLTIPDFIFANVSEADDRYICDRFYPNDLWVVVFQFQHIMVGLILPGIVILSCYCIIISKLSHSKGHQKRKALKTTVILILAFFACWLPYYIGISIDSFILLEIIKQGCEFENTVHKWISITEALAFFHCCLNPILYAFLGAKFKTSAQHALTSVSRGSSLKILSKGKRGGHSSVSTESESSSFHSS
sequence,measurement,setting,value
"LVRYTKKVPQVSTPTL [ALB408-423, LVRYTKKVPQVSTPTL]",Ki,[1],46.4 µM
same,inhibition of CXCL12-evoked calcium responses,"[1]; 50 μM peptide, HEK EGFP-CXCR4 cells",70%
same,"agonism: calcium response induced by the peptide alone, CXCR4","[1]; 50 μM peptide, no chemokine",does not induce any calcium response
same,mean IC50 over all analyzed X4-tropic HIV-1 variants,"[2]; 0.5 ng p24, 3 days, synthetic peptide",24.2 µg/mL
same,"block of infection by X4 tropic HIV-1 clones (NL4-3, P51-Sc, P34-s)",[2]; 100 μM peptide,almost completely
same,IC50,"[3]; read-out: IC50, X4 tropic HIV-1 infection (Example 5), HIV-1 NL4-3",10 to 20 µM
same,IC50,"[3]; read-out: IC50 ± SEM, X4 tropic HIV-1 NL4-3, two days post infection, synthetic peptides",7.6 ± 1.2 µM
same,IC50,[4],10 to 20 µM
